Laboratory results as given in article PMC11062899, “De novo development of small cyclic peptides that are orally bioavailable” (Nature Chemical Biology, 2023).
Where “and” joins values, the source holds several entries; their conditions need not be identical. Equal entries are not always repeated.

What was measured:
in vivo = details: rat
Description: Male Wistar Han rats (250–350 g) obtained at an age of 9–10 weeks from Charles River Laboratories were used for the studies and kept in housing groups of two or three. Experiments were performed at the age of 10–11 weeks. Intravenous (i.v.) administrations were carried out using tail vein injections. Peptides were dissolved in pure DMSO and diluted with 5% Cremophor EL in water (5% DMSO final) at a concentration of 0.5 mg ml^−1. I.v. administration was carried out at a dose of 1 mg kg^−1 body weight via the left lateral tail vein of rats (n = 3) using an Insyte-W 24 G × 0.75 in. (0.7 mm × 19 mm) temporary peripheral venous catheter (BD Biosciences, 381312). Before injecting the peptide solution, a correct placement of the catheter was confirmed by an apparent reflux of blood through the catheter. Orally (p.o.) administrated peptides were dissolved in DMSO and diluted with 10% Cremophor EL in water (5% DMSO final) at a concentration of 1 mg ml^−1 and administrated by oral gavage to rats (n = 3) at a dose of 10 mg kg^−1. Rats used for oral administration were fasted overnight for 14 h and provided access to food again 2 h after administration, whereas access to water was not restricted throughout the whole experimental procedure. Volumes of 100 μl of blood samples were collected via the right lateral tail vein at different timepoints after i.v. or p.o. administration into heparinized tubes (Sarstedt, 20.1282); the samples were stored on ice for up to 4 h; and plasma was obtained by centrifugation at 2,000g for 5 min at 4 °C. A volume of 40 μl of plasma was added to 120 μl of an acetonitrile:water (9:1) solution containing an internal standard (5 μg ml^−1). Samples were vortexed for 10 s and sonicated for 10 min, and precipitated plasma proteins were pelleted by centrifugation at 16,000g for 15 min at 4 °C. Volumes of 120 μl of supernatant were transferred to a new tube, and solvent was evaporated in a rotary vacuum concentrator (RVC 2–33 CDplus IR, Christ) for 2 h at 40 °C. Dried residues were dissolved in 20 μl of a water:acetonitrile (7:3) (v/v) solution, centrifuged at 14,000g for 5 min and analyzed by LC–MS. Peptides were quantified by extracting ion chromatograms corresponding to their respective mass, integrating the area under the peptide peak and calculating the concentrations by normalization to a calibration curve. Calibration curves were prepared by analyzing spiked samples of blood or plasma with known concentrations of peptide. The absolute oral bioavailability was calculated using equation (6).6 F=AUCp.o./AUCi.v.×Dosei.v./Dosep.o.×100 where AUCp.o. and AUCi.v. are calculated from a plasma concentration versus time curve using the linear trapezoidal rule, and Dosei.v. and Dosep.o. are the intravenously or orally administrated amount of peptide in mg kg^−1.

[1] = Metabolic stability in rat liver microsomes (RLMs); details: for TIC value of compound, metabolic stability RLM: replicates R1-R3; for microsomal CLint / half-life: rat, microsomes
human α-thrombin = human α-thrombin (Homo sapiens, UniProt P00734); test: Screen of 8,448-member cyclic peptide library against thrombin (crude reactions, 10 μM); type: biochemical; details: 10 μM crude peptide, slopes normalized to DMSO; for Residual thrombin activity: Replica: repeated acylation and screen
Description: The cyclic peptides were N-acylated with activated carboxylic acids as follows. Volumes of 25 nl of cyclic peptides and 25 nl of activated carboxylic acids were transferred in a combinatorial fashion to 384-well microplates (Greiner, 781076) using an Echo 650 acoustic liquid handler (Labcyte). Plates were centrifuged at 2,000g for 2 min and incubated at room temperature for 8 h. […] The reaction products were screened for thrombin inhibition as follows. […] Thrombin inhibition was determined by measuring the fluorescent gain over time. Fluorescence intensity was measured on a Tecan Infinite […] microplate reader for 30 min at 25 °C with a fluorescent readout every 3 min (excitation: 360 nm, emission: 465 nm). Protease inhibition was calculated by comparing the enzymatic activity to a control without cyclic peptide. page 48: Supplementary Tables Supplementary Table 1 […] Cyclic peptide high-throughput screen. Category Parameter Description Assay Type of assay In vitro Target Human α thrombin Primary measurement Proteolytic cleavage of fluorogenic substrate Key reagents […] (Bachem) Assay protocol Described in Materials section “Thrombin library synthesis and screening” Additional comments - […] Library composition Cyclic peptides Source Combinatorial synthesis. Described in Methods section “Thrombin library synthesis and screening” Additional comments - Screen Format 384 well microtiter plates (Greiner, 781076) Concentration(s) tested 10 µM Plate controls 20 wells DMSO, 4 wells human α thrombin inhibitor R-11-25-2 (DOI: 10.1039/d0sc01944e) Reagent/ compound dispensing system Echo 650 (Beckman Coulter), […]) Detection instrument and software Tecan Infinite […] microplate reader Assay validation/QC Z' score: 0.86 Correction factors - Normalization Percent fluorescent gain over time as compared to DMSO Additional comments - […] Additional assay(s) Resynthesis and retesting of 20 best hits in original assay Confirmation of hit purity and structure Compounds were resynthesized and verified analytically Additional comments - 47

[2] = male, Wistar Han, iv, 1 mg/kg, Concentration in blood samples
[3] = male, Wistar Han, po, 10 mg/kg, Concentration in blood samples
[4] = Half Life, RLM, individual replicates R1-R3
[5] = Metabolic stability: RLM CL (ul/min/mg), RLMs, mean and SD, three measurements
[6] = pH 7.4, Metabolic stability: Half life T1/2 (min), RLMs, mean and SD, three measurements
[7] = CL (ul/min/mg protein) R1, RLM CL, replicate R1
[8] = CL (ul/min/mg protein) R2, RLM CL, replicate R2
[9] = CL (ul/min/mg protein) R3, RLM CL, replicate R3
[10] = Half Life (min) R1, RLM metabolic stability, replicate R1, 0-60 min
[11] = Half Life (min) R2, RLM metabolic stability, replicate R2, 0-60 min
[12] = Half Life (min) R3, RLM metabolic stability, replicate R3, 0-60 min
[13] = Metabolic stability: RLM CL R1, summary table, rounded, replicate R1
[14] = Metabolic stability: RLM CL R2, summary table, rounded, replicate R2
[15] = Metabolic stability: RLM CL R3, summary table, rounded, replicate R3
[16] = male, Wistar Han, iv, 1 mg/kg, Plasma Concentration (uM)

| bioavailability (in vivo; po) | Cmax (in vivo; po, 10 mg/kg) | TIC value of compound, metabolic stability RLM ([1]; 0 min) | TIC value of compound, metabolic stability RLM ([1]; 5 min) | TIC value of compound, metabolic stability RLM ([1]; 15 min) | TIC value of compound, metabolic stability RLM ([1]; 30 min) | TIC value of compound, metabolic stability RLM ([1]; 60 min) | Half Life, RLM ([1]; individual replicates R1-R3) | half-life [1, 4] | microsomal CLint [1, 5] | half-life [1, 6] | Residual thrombin activity: Screen (human α-thrombin) | Residual thrombin activity: Replica (human α-thrombin) | microsomal CLint [1, 7] | microsomal CLint [1, 8] | microsomal CLint [1, 9] | half-life [1, 10] | half-life [1, 11] | half-life [1, 12] | microsomal CLint [1, 13] | SMILES | also measured |
| --- | --- | --- | --- | --- | --- | --- | --- | --- | --- | --- | --- | --- | --- | --- | --- | --- | --- | --- | --- | --- | --- |
| 18.4 ± 1.9% | 400 ± 120 nM | 14110188 (2×) and 12352514 | 13677902 and 11194388 and 11188088 | 10674204 and 7516980 and 9028625 | 7710068 and 5736371 and 6256299 | 3465219 and 2801334 and 3774480 | 33.04 min and 32.99 min | 33.4 min | 43 ± 1 µL/min/mg | 33 ± 1 min | – | – | – | – | – | – | – | – | – | O=C1C[C@H]2CCCN2C(=O)[C@H](Cc2ccccc2)NC(=O)[C@@H](NC(=O)c2ccc(Cl)cc2)CCC=CCCCCN1 (mixture of isomers) [peptide 46] | Concentration in blood samples (in vivo; male, Wistar Han, iv, 1 mg/kg, 1 h): 90 nM; level at time molar at 0.08 h (in vivo; [2]): 1.31 µM; level at time molar at 0.25 h (in vivo; [2]): 0.59 µM; level at time molar at 0.5 h (in vivo; [2]): 280 nM; level at time molar at 1 h (in vivo; [2]): 120 nM; level at time molar at 2 h (in vivo; [2]): 0.0535 µM; level at time molar at 0.5 h (in vivo; [3]): 290 nM; level at time molar at 1 h (in vivo; [3]): 240 nM; level at time molar at 2 h (in vivo; [3]): 0.2 µM; level at time molar at 8 h (in vivo; [3]): 17.1 nM; CL, RLM ([1]; individual replicates R1-R3): 41.9492 ul/min/mg protein and 42.0127 ul/min/mg protein; microsomal CLint ([1]; CL, RLM, individual replicates R1-R3): 41.5 µL/min/mg |
| – | – | – | – | – | – | – | – | – | 117 ± 28 µL/min/mg | 12.7 ± 3.6 min | 29.3 | 33.0 | 78.3 µL/min/mg | 132 µL/min/mg | 141 µL/min/mg | 17.7 min | 10.5 min | 9.82 min | 78.3 µL/min/mg | CN1CCC(=O)NCCSCCS(=O)(=O)CCSC[C@H](NC(=O)c2ccc(Cl)s2)C(=O)N[C@@H](Cc2ccccc2)C1=O [compound 14] | microsomal CLint [1, 14]: 132 µL/min/mg; microsomal CLint [1, 15]: 141 µL/min/mg; microsomal CLint ([1]; pH 7.4, Metabolic stability: RLM CL Average, summary table, average of R1-R3): 117 µL/min/mg |
| – | – | – | – | – | – | – | – | – | 82 ± 10 µL/min/mg | – | 3.1 | 1.5 | 92.9 µL/min/mg | 68.2 µL/min/mg | 83.9 µL/min/mg | 14.9 min | 20.3 min | 16.5 min | 92.9 µL/min/mg | O=C1C[C@H]2CCCN2C(=O)[C@H](Cc2ccccc2)NC(=O)[C@@H](NC(=O)c2ccc(Cl)s2)CSCCS(=O)(=O)CCSCCN1 [peptide 11] | half-life ([1]; Metabolic stability: Half life T1/2 (min), RLMs, mean and SD, three measurements): 17.3 ± 2.3 min; microsomal CLint ([1]; Metabolic stability: RLM CL Average, summary table, average of R1-R3): 81.7 µL/min/mg; microsomal CLint [1, 14]: 68.2 µL/min/mg; microsomal CLint [1, 15]: 83.9 µL/min/mg |
| 4.5 ± 2.5% | 183 ± 96 nM | 15121279 (2×) and 12636158 | 12214985 and 10185041 and 10498454 | 8936637 and 6181065 and 6718551 | 4407741 and 2845968 and 2692424 | 749207 and 393357 and 268692 | 16.74 min and 14.9 min | 17.3 min | – | 16.3 ± 1 min | – | – | – | – | – | – | – | – | – | O=C1C[C@H]2CCCN2C(=O)[C@H](Cc2ccccc2)NC(=O)[C@@H](NC(=O)c2ccc(Cl)s2)CCC=CCCCCN1 [peptide 43] | level at time molar at 0.08 h (in vivo; [16]): 3.19 µM; level at time molar at 0.25 h (in vivo; [16]): 1.63 µM; level at time molar at 2 h (in vivo; [16]): 0.29 µM; Tmax (in vivo; male, Wistar Han, po): 30 min; CL (ul/min/mg protein) in RLMs (single replicates R1–R3) ([1]; Fig. 5e source data): 82.7957 ul/min/mg protein and 93.0201 ul/min/mg protein and 80.07 ul/min/mg protein and 82.80 ul/min/mg protein and 93.02 ul/min/mg protein; Half Life (min) in RLMs (single replicates R1–R3) ([1]; Fig. 5e source data): 16.74 min and 14.9 min; microsomal CLint ([1]; CL (ul/min/mg protein) in RLMs (single replicates R1–R3), Fig. 5e source data): 80.1 µL/min/mg; microsomal CLint ([1]; Clearance (CL) in RLMs, calculated from half-life, mean and s.d. of three measurements): 85 ± 6 µL/min/mg; half-life ([1]; Half Life (min) in RLMs (single replicates R1–R3), Fig. 5e source data): 17.3 min; microsomal CLint ([1]; pH 7.4, CL (ul/min/mg protein) in RLMs Average, Fig. 5e source data): 85.3 µL/min/mg |
